Source: BindingDB's records for doi:10.1021/ml300128f (The Scripps Research Institute, 2012)

Target: Elastase (Pseudomonas aeruginosa (strain ATCC 15692 / DSM 22644 / CIP 104116 / JCM 14847 / LMG 12228 / 1C / PRS 101 / PAO1), UniProt P14756)
Experiment: Antagonist activity at Pseudomonas aeruginosa LasB using Abz-Ala-Gly-Leu-Ala-p-Nitro-Benzyl-Amide as substrate incubated for 30 mins prior to substrate addition by FRET assay

Chain of Elastase (P14756 whole entry): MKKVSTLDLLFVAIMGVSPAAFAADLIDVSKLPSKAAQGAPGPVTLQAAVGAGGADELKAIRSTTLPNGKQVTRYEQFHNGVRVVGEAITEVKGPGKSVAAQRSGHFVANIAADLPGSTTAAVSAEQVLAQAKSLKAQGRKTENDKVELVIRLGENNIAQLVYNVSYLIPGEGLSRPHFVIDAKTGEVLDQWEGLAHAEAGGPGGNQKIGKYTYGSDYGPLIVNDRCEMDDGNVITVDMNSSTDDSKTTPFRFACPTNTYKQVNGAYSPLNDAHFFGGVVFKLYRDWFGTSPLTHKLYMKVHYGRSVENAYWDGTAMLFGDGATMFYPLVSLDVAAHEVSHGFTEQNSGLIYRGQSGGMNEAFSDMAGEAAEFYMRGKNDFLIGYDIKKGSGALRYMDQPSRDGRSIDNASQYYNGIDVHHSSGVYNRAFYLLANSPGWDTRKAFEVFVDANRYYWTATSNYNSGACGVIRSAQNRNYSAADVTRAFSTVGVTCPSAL

Row | Compound | IC50
1 | CCc1c(O)c(=S)ccn1CC | 392 µM
2 | Cc1c(O)c(=S)ccn1C | 80.6 µM
